Measured values from ChEMBL document CHEMBL1130146, “Fused pyrrolo[2,3-c]carbazol-6-ones: novel immunostimulants that enhance human interferon-gamma activity” (J Med Chem, 1997).

Columns and labels:
Protein kinase C (PKC) = experiment: Inhibition of protein kinase C; assay type: protein assay, Rattus norvegicus
THP-1 [1] = experiment: Compound (2 uM) was screened for potentiation of IFN-gamma (0 units/mL)-induced expression of HLA-DR in THP-1 cells; assay type: functional, Homo sapiens
THP-1 [2] = experiment: Compound (0 uM) was screened for potentiation of IFN-gamma (0 units/mL)-induced expression of HLA-DR in THP-1 cells; assay type: functional, Homo sapiens
THP-1 [3] = experiment: Compound (0 uM) was screened for potentiation of IFN-gamma (100 units/mL)-induced expression of HLA-DR in THP-1 cells; assay type: functional, Homo sapiens
THP-1 [4] = experiment: Compound (2 uM) was screened for potentiation of IFN-gamma (100 units/mL)-induced expression of HLA-DR in THP-1 cells; assay type: functional, Homo sapiens

How did the IC50 (Protein kinase C (PKC)) turn out when `O=C1Cc2c(c3c4ccccc4[nH]c3c3[nH]c4ccccc4c23)N1` was run?
The IC50 was over 10 µM.

What about the Enhancement (THP-1 [1]) of the same compound?
The Enhancement was 0%.

And the Enhancement (THP-1 [2])?
The Enhancement was 0%.

What about the Enhancement (THP-1 [3]) of the same compound?
Its Enhancement is 100%.

And the Enhancement (THP-1 [4])?
Its Enhancement is 130%.

For `O=C1Cc2c(c3c4ccccc4sc3c3[nH]c4ccccc4c23)N1`, which IC50 (Protein kinase C (PKC)) is on record?
The IC50 was over 10 µM.

And the Enhancement (THP-1 [1])?
Its Enhancement is 0%.

What about the Enhancement (THP-1 [2]) of the same compound?
The Enhancement was 0%.

What about the Enhancement (THP-1 [3]) of the same compound?
The Enhancement was 100%.

What about the Enhancement (THP-1 [4]) of the same compound?
Its Enhancement is 153%.

With `O=C1Cc2c(c3c4ccccc4oc3c3[nH]c4ccccc4c23)N1` as the compound, how does the IC50 (Protein kinase C (PKC)) read?
Its IC50 is over 10 µM.

What about the Enhancement (THP-1 [1]) of the same compound?
The Enhancement was 0%.

What about the Enhancement (THP-1 [2]) of the same compound?
Its Enhancement is 0%.

What about the Enhancement (THP-1 [3]) of the same compound?
Its Enhancement is 100%.

And the Enhancement (THP-1 [4])?
Its Enhancement is 108%.

What does the source list for `O=C1Cc2c(c3c(c4[nH]c5ccccc5c24)Cc2ccccc2-3)N1`?
IC50 (Protein kinase C (PKC)): > 10 µM; Enhancement (THP-1 [1]): 0%; Enhancement (THP-1 [2]): 0%; Enhancement (THP-1 [3]): 100%; Enhancement (THP-1 [4]): 160%
